{"source": "EPA's ToxValDB 9.5 (doi:10.2903/j.efsa.2019.5732)", "key": {"Apis mellifera": {"test_system": "Apis mellifera", "conditions": "acute, mortality"}, "Bibionidae": {"test_system": "Bibionidae", "conditions": "chronic/long-term; duration: 28 days; seedling emergence"}, "Canidae": {"test_system": "Canidae", "conditions": "chronic; duration: 1 years; oral; Dog Other; organ weight"}, "Daphnia magna": {"test_system": "Daphnia magna", "conditions": "chronic/long-term; duration: 21 days; reproduction"}, "Folsomia candida": {"test_system": "Folsomia candida", "conditions": "chronic/long-term; mortality"}, "Mus musculus": {"test_system": "Mus musculus", "conditions": "chronic; duration: 18 months; mortality"}, "Oryctolagus sp.": {"test_system": "Oryctolagus sp.", "conditions": "developmental; development"}, "Pontoscolex corethrurus": {"test_system": "Pontoscolex corethrurus", "conditions": "chronic/long-term; growth"}}}
{"smiles": "CC(COc1ccc(Oc2ccccc2)cc1)Oc1ccccn1", "note": "(centres undefined) [Pyriproxyfen]", "values": [{"measurement": "LD50", "setting": "Anas platyrhynchos; acute, oral, unspecified, mortality", "value": "> 1910", "unit": "mg/kg-day"}, {"measurement": "NOEC", "setting": "Anas platyrhynchos; chronic/long-term", "value": 70.2, "unit": "mg/kg-day"}, {"measurement": "LC50", "setting": "Anas platyrhynchos; short-term, oral, feed, mortality", "value": "> 1260", "unit": "mg/kg-day"}, {"measurement": "LD50", "setting": "Apis mellifera; dermal", "value": "> 100", "unit": "µg/piece"}, {"measurement": "LD50", "setting": "Apis mellifera; oral, unspecified", "value": 74, "unit": "µg/piece"}, {"measurement": "NOEC", "setting": "Bibionidae", "value": 3.1, "unit": "µg/L"}, {"measurement": "NOAEL", "setting": "Canidae", "value": 10, "unit": "mg/kg-day"}, {"measurement": "NOEC", "setting": "Daphnia magna", "value": 0.015, "unit": "µg/L"}, {"measurement": "NOEC", "setting": "Folsomia candida", "value": 12.5, "unit": "mg/kg"}, {"measurement": "LOAEL", "setting": "Mus musculus", "value": 16.4, "unit": "mg/kg-day"}, {"measurement": "NOAEL", "setting": "Oryctolagus sp.", "value": 100, "unit": "mg/kg-day"}, {"measurement": "NOEC", "setting": "Pontoscolex corethrurus", "value": 50, "unit": "mg/kg"}, {"measurement": "LD50", "setting": "Rattus norvegicus; acute, oral, mortality", "value": "> 5000", "unit": "mg/kg-day"}, {"measurement": "NOAEL", "setting": "Rattus norvegicus; reproduction developmental, organ weight", "value": 13.3, "unit": "mg/kg-day"}]}
